For the experiment, the system named is HIV-1. The experiment is described as follows: HIV-1 single-round infectious luciferase reporter virus (pseudotype) assay in HeLa CD4 CCR5 cells. Conditions: for pEC50: Human immunodeficiency virus 1, HeLa-CD4/CCR5, read-out: EC50 Group from TABLE 1, HeLa CD4 CCR5 cells, single-round infectious luciferase reporter virus. It is filed as cell-based. On the procedure: • Virus production—Human embryonic Kidney cell line, 293, propagated in Dulbecco's Modified Eagle Medium (Life Technologies, Gaithersburg, Md.) containing 10% fetal Bovine serum (FBS, Sigma, St. Louis, Mo.). • Virus infection—Human epithelial cell line, HeLa, expressing the HIV-1 receptors CD4 and CCR^5 was propagated in Dulbecco's Modified Eagle Medium (Life Technologies, Gaithersburg, Md.) containing 10% fetal Bovine serum (FBS, Sigma, St. Louis, Mo.) and supplemented with 0.2 mg/mL Geneticin (Life Technologies, Gaithersburg, Md.) and 0.4 mg/mL Zeocin (Invitrogen, Carlsbad, Calif.). […] Transfections were performed using lipofectAMINE PLUS reagent as described by the manufacturer (Life Technologies, Gaithersburg, Md.). Experiment • 1. Compound was added to HeLa CD4 CCR5 cells plated in 96 well plates at a cell density of 5×10^4 cells per well in 100 μl Dulbecco's Modified Eagle Medium containing 10% fetal Bovine serum at a concentration of […]. • 2. 100 μl of single-round infectious reporter virus in Dulbecco's Modified Eagle Medium was then added to the plated cells and compound at an approximate multiplicity of infection (MOI) of 0.01, resulting in a final volume of 200 μl per well and a final compound concentration of <10 μM. • 3. Samples were harvested 72 h after infection. • 4. Viral infection was monitored by measuring luciferase expression from viral DNA in the infected cells using a luciferase reporter gene assay kit (Roche Molecular Biochemicals, Indianapolis, Ind.). Infected cell supernatants were removed and 50 μl of Dulbecco's Modified Eagle Medium (without phenol red) and 50 μl of luciferase assay reagent reconstituted as described by the manufacturer (Roche Molecular Biochemicals, Indianapolis, Ind.) was added per well. Luciferase activity was then quantified by measuring luminescence using a Wallac microbeta scintillation counter. • 5. […] An EC50 provides a method for comparing the antiviral potency of the compounds of this invention. The effective concentration for fifty percent inhibition (EC50) was calculated with the Microsoft Excel Xlfit curve fitting software. For each compound, curves were generated from percent inhibition calculated at 10 different concentrations by using a four paramenter logistic model (model 205). Table 1 is the key for the data in Tables 2-4. Cytoxicity assays were conducted with the same HeLa using methodology well known in the art.
In Table 5, X2, X4 etc. indicates the point of attachment. […] The data at 10 μM was calculated in the following manner:
For compounds tested at concentrations less than 10 μM, the percent inhibition at 10 μM was determined by extrapolation using the XLfit curve fitting feature of the Microsoft Excel spreadsheet software. Curves were obtained from 10 data points (% inhibition determined at 10 concentrations of compound) by using a four parameter logistic model (XLfit model 205: y=A+((B−A)/(I+((C/x)^D))), where, A=minimum y, B=maximum y, C=logEC50, D=slope factor, and x and y are known data values. Extrapolations were performed with the A and B parameters unlocked. […]
For orientation: A reporter such as luciferase makes a cellular process visible.

pEC50: −log10 of the molar value.

One may read the pEC50 as −log10 of the EC50, conventionally taken in molar units. On to `COc1cnc(-n2ccc(COC(=O)CC(C)(C)C(=O)O)n2)c2[nH]cc(C(=O)C(=O)N3CCN(C(=O)c4ccccc4)[C@H](C)C3)c12` (stereo in doubt) [Example 295, 2,2-Dimethyl-succinic acid 4-(1-{3-[2-(4-benzoyl-3-methyl-piperazin-1-yl)-2-oxo-acetyl]-4-methoxy-1H-pyrrolo[2,3-c]pyridin-7-yl}-1H-pyrazol-3-ylmethyl) ester], for which the pEC50 was greater than 6.00. Same read-out and setting: the figure for `C[C@@H]1CN(C(=O)c2ccccc2)CCN1C(=O)C(=O)c1c[nH]c2c(-c3cncc(NC(=O)C4OC4C(=O)O)n3)nccc12` (stereo in doubt) [Example 296, 3-(6-{3-[2-(4-Benzoyl-2-methyl-piperazin-1-yl)-2-oxo-acetyl]-1H-pyrrolo[2,3-c]pyridin-7-yl}-pyrazin-2-ylcarbamoyl)-oxirane-2-carboxylic acid] is greater than 6.00. For the molecule `C[C@@H]1CN(C(=O)c2ccccc2)CCN1C(=O)C(=O)c1c[nH]c2c(-c3cccc(NC(=O)C4OC4C(=O)O)n3)nccc12` (stereo in doubt) [Example 297, 3-(6-{3-[2-(4-Benzoyl-2-methyl-piperazin-1-yl)-2-oxo-acetyl]-1H-pyrrolo[2,3-c]pyridin-7-yl}-pyridin-2-ylcarbamoyl)-oxirane-2-carboxylic acid], the pEC50 was greater than 6.00. In general, inhibition refers to the relative decrease from the control value, in per cent. Regarding `C[C@@H]1CN(C(=O)c2ccccc2)CCN1C(=O)C(=O)c1c[nH]c2c(-c3ccc(F)cc3)nccc12` [Example 1, 1-benzoyl-3-(R)-methyl-4-[(7-(4-fluorophenyl)-6-azaindol-3-yl)-oxoacetyl]-piperazine], the pEC50 is greater than 6.00. For the same molecule, where the note is “Human immunodeficiency virus 1, HeLa-CD4/CCR5, read-out: Average % inhibition at 10 μM”, the inhibition at 10 µM turned out to be 56%. Consider `O=C(C(=O)N1CCN(C(=O)c2ccccc2)CC1)c1c[nH]c2c(-c3ccc(Cl)cc3)nccc12` [Example 2, 1-benzoyl-4-[(7-(4-chlorophenyl)-6-azaindol-3-yl)-oxoacetyl]piperazine], for which the pEC50 is greater than 6.00. Take `O=C(O)c1ccc(-c2nccc3c(C(=O)C(=O)N4CCN(C(=O)c5ccccc5)CC4)c[nH]c23)cc1` [Example 4, 1-benzoyl-4-[(7-(4-carboxy-phenyl)-6-azaindol-3-yl)-oxoacetyl]piperazine]: the pEC50 is greater than 6.00.

Regarding `CC1CN(C(=O)c2ccccc2)CCN1C(=O)C(=O)c1c[nH]c2c(-c3ccc4c(c3)OCO4)nccc12` (centres unmarked) [Example 5, 1-benzoyl-3-methyl-4-[(7-(3,4-methylenedioxyphenyl)-6-azaindol-3-yl)-oxoacetyl]piperazine], the pEC50 is greater than 6.00. Regarding `C[C@@H]1CN(C(=O)c2ccccc2)CCN1C(=O)C(=O)c1c[nH]c2c(-c3ccco3)nccc12` [Example 6, 1-benzoyl-3-®-methyl-4-[(7-(furan-2-yl)-6-azaindol-3-yl)-oxoacetyl]piperazine], the pEC50 is greater than 6.00. On the same count and under the same terms, next, `O=C(C(=O)N1CCN(C(=O)c2ccccc2)CC1)c1c[nH]c2c(-c3ccco3)nccc12` [Example 7, 1-benzoyl-4-[(7-(furan-2-yl)-6-azaindol-3-yl)-oxoacetyl] piperazine]: greater than 6.00; `O=C(C(=O)N1CCN(C(=O)c2ccccc2)CC1)c1c[nH]c2c(-c3cc4ccccc4o3)nccc12` [Example 8, 1-benzoyl-4-[(7-(benzofuran-2-yl)-6-azaindol-3-yl)-oxoacetyl]piperazine]: greater than 6.00. As to `C[C@@H]1CN(C(=O)c2ccccc2)CCN1C(=O)C(=O)c1c[nH]c2c(-c3cccs3)nccc12` [Example 9, 1-(benzoyl)-3-®-methyl-4-[(7-(thien-2-yl)-6-azaindol-3-yl)-oxoacetyl]piperazine], the pEC50 was greater than 6.00. With `O=C(C(=O)N1CCN(C(=O)c2ccccc2)CC1)c1c[nH]c2c(-c3ccncc3)nccc12` [Example 10, 1-(benzoyl)-4-[(7-(pyridin-4-yl)-6-azaindol-3-yl)-oxoacetyl]piperazine], the pEC50 is greater than 6.00. Turning to `O=C(C(=O)N1CCN(C(=O)c2ccccc2)CC1)c1c[nH]c2c(-c3cccc4cccnc34)nccc12` [Example 11, 1-benzoyl-4-[(7-(quinolin-8-yl)-6-azaindol-3-yl)-oxoacetyl]piperazine], the pEC50 was greater than 6.00. Consider `COc1cnc(-c2ccncc2)c2[nH]cc(C(=O)C(=O)N3CCN(C(=O)c4ccccc4)CC3)c12` [Example 14, 1-benzoyl-4-[(4-methoxy-7-(pyridin-4-yl)-6-azaindol-3-yl)-oxoacetyl]piperazine], for which the negative-log EC50 (pEC50) was greater than 6.00. For the molecule `COc1cnc(-c2cnc(C(=O)NC(C)(C)C)cn2)c2[nH]cc(C(=O)C(=O)N3CCN(C(=O)c4ccccc4)CC3)c12` [Example 15, 1-benzoyl-4-[(4-methoxy-7-(2-(1,1-dimethylethylaminocarbonyl)-pyrazin-5-yl)-6-azaindol-3-yl)-oxoacetyl]piperazine], the pEC50 was greater than 6.00.

On to `C[C@@H]1CN(C(=O)c2ccccc2)CCN1C(=O)C(=O)c1c[nH]c2c(-c3cncnc3)nccc12` [Example 16, 1-benzoyl-3-(R)-methyl-4-[(7-(pyrimidin-5-yl)-6-azaindol-3-yl)-oxoacetyl]piperazine], for which the pEC50 is greater than 6.00. Take `O=C(C(=O)N1CCN(C(=O)c2ccccc2)CC1)c1c[nH]c2c(-c3cncnc3)nccc12` [Example 17, 1-benzoyl-4-[(7-(pyrimidin-5-yl)-6-azaindol-3-yl)-oxoacetyl]piperazine]: the pEC50 was greater than 6.00. Turning to `C[C@@H]1CN(C(=O)c2ccccc2)CCN1C(=O)C(=O)c1c[nH]c2c(-c3cccnc3)nccc12` [Example 18, 1-benzoyl-3-(R)-methyl-4-[(7-(pyridin-3-yl)-6-azaindol-3-yl)-oxoacetyl]piperazine], the pEC50 was greater than 6.00.

Take `O=C(C(=O)N1CCN(C(=O)c2ccccc2)CC1)c1c[nH]c2c(-c3ccccn3)nccc12` [Example 19, 1-benzoyl-4-[(7-(pyridin-2-yl)-6-azaindol-3-yl)-oxoacetyl]piperazine]: the pEC50 is greater than 6.00.

`C[C@@H]1CN(C(=O)c2ccccc2)CCN1C(=O)C(=O)c1c[nH]c2c(-c3nccs3)nccc12` [Example 20, 1-benzoyl-3-(R)-methyl-4-[(7-(thiazol-2-yl)-6-azaindol-3-yl)oxoacetyl]piperazine]: the pEC50 is greater than 6.00. On to `O=C(C(=O)N1CCN(C(=O)c2ccccc2)CC1)c1c[nH]c2c(-c3nccs3)nccc12` [Example 21, 1-benzoyl-4-[(7-(thiazol-2-yl)-6-azaindol-3-yl)-oxoacetyl]piperazine], for which the pEC50 is greater than 6.00.

As to `COc1cnc(-c2ccnnc2)c2[nH]cc(C(=O)C(=O)N3CCN(C(=O)c4ccccc4)CC3)c12` [Example 23, l-benzoyl-4-[(4-methoxy-7-(pyridazin-4-yl)-6-azaindol-3-yl)-oxoacetyl]piperazine], the pEC50 is greater than 6.00.

With `COc1cnc(-c2cnc(N)nc2)c2[nH]cc(C(=O)C(=O)N3CCN(C(=O)c4ccccc4)CC3)c12` [Example 24], the pEC50 was greater than 6.00. Take `COc1cnc(-c2cccnc2)c2[nH]cc(C(=O)C(=O)N3CCN(C(=O)c4ccccc4)CC3)c12` [Example 25, 1-benzoyl-4-[(4-methoxy-7-(pyridin-3-yl)-6-azaindol-3-yl)-oxoacetyl]piperazine]: the pEC50 is greater than 6.00. On to `COc1cnc(-c2cnc(N)cn2)c2[nH]cc(C(=O)C(=O)N3CCN(C(=O)c4ccccc4)CC3)c12` [Example 26], for which the pEC50 is greater than 6.00. Turning to `COc1cnc(-c2nccn2C)c2[nH]cc(C(=O)C(=O)N3CCN(C(=O)c4ccccc4)CC3)c12` [Example 27, 1-benzoyl-4-[(4-methoxy-7-(1-methyl-imidazol-2-yl)-6-azaindol-3-yl)-oxoacetyl]piperazine], the pEC50 was greater than 6.00. For `O=C(C(=O)N1CCN(C(=O)c2ccccc2)CC1)c1c[nH]c2c(-c3ccnnc3)ncc(F)c12` [Example 30, 1-benzoyl-4-[(4-fluoro-7-(pyridazin-4-yl)-6-azaindol-3-yl)-oxoacetyl]piperazine], the pEC50 was greater than 6.00. `COc1cnc(-c2cnccn2)c2[nH]cc(C(=O)C(=O)N3CCN(C(=O)c4ccccc4)CC3)c12` [Example 32, 1-benzoyl-4-[(4-methoxy-7-(pyrazin-2-yl)-6-azaindol-3-yl)-oxoacetyl]piperazine]: the pEC50 was greater than 6.00.

Source of the values: patent publication US20050090522A1 (priority 2001, published 2005).
